Columns and labels:
GSPT1 = molecular target: T1, GSPT1 (Homo sapiens, UniProt P15170+Q96SW2); assay: GSPT1 degradation immunofluorescence assay in CAL-51 cells; assay type: cell-based; conditions: 6 hours treatment, compounds 201 to 307, read-out: Activity for GSPT1 degradation (DC50 code)
T1 construct: CAL-51 cells were purchased from DSMZ (cat. Number ACC302); host or cells: CAL-51 cells
Description: CAL-51 cells were purchased from DSMZ (cat. Number ACC302), sub-cultured in 90% Dulbecco's MEM (4.5 g/L glucose, Gibco 11965)+10% heat inactivated FBS (BioConcept, 2-01F1361) and incubated at 37° C., 5% CO2. For the assay, imaging microtiterplate Cell Carrier 96 Ultra (Perkin Elmer 6055302) were pre-coated with Fibronectin (Sigma F085, 30 μl at 0.2 μg/ml) in PBS (100p, Gibco 14190) for 45 min at room temperature, rinsed with PBS and CAL-51 cells (30K cells/well) were plated and let to adhere overnight. Cells were treated with compounds typically using a serial dilution ranging from 30 μM to 0.1 nM for 6 hours. Compounds were stored at 10 mM DMSO stocks. Vehicle (DMSO), positive (CC-885, 10 μM) and rescue controls (positive control plus 0.2 μM bortezomib) were also included at this stage. Cells were subsequently rinsed with PBS and fixed in 10% Formalin solution (50p, Sigma HT5011)) for 20 mins at room temperature. Following three consecutive PBS washes (100 μl), cells were permeabilized in 0.1% Triton X-100 in PBS (Sigma 93443, 50 μl) for 15 mins at room temperature. Following three further PBS washes, 50 μl blocking buffer (1% BSA, Sigma A4503, in PBS) was added for 45 min for signal-to-noise reduction. Primary antibody (human GSPT1, Sigma HPA052488) was diluted in blocking buffer (dil.1/300, 35 μl/well) and incubated with the cells overnight at 4° C. After three PBS washes, Alexa-fluor 488 coupled secondary antibodies (Invitrogen, A32731, dil. 1/1000), Alexa-fluor 647-Phalloïdin (Invitrogen, A22287, dil. 1/200) and DAPI (Thermo, #62248, dil.1/1000) were diluted in blocking buffer and incubated with the samples for 2 hours at room temperature. After three final PBS washes, samples were conserved in 100 μl PBS in the dark, until measurement. Image acquisition was performed on the Operetta High-Content Imager (Perkin-Elmer). Fluorescence intensity of Alexa-Fluor 488 (GSPT1), Alexa-Fluor 647 (Actin) and DAPI (Nucleus) were measured. For the determination of GSPT1 DC50 values, a custom algorithm implemented in the PerkinElmer image analysis software Harmony-Acapella@ was developed. After user-defined setting of adjustment parameters, the analysis was run identically without human intervention for all image fields. DAPI staining of the nuclei was used to determine the location of cells using standard nuclei detection modules. Segmentation artifacts were removed by threshold-based filters for area, roundness and intensity. The outline of the cells was determined analogously from the sum of the normalized, smoothed DAPI and Actin channel, starting from each nucleus.
The Alexa-Fluor 488 (GSPT1) signal intensity in each cell was finally measured, in order to obtain a Mean intensity per cell. GSPT1 degradation (DC50) was calculated after normalization to controls and data import in CDD vault Database, using non-linear regression.

[1] = molecular target: T2, Full length wild-type cereblon CRBN (Homo sapiens, UniProt Q96SW2); assay: Fluorescence polarization (FP) assay indicating cereblon binding
T2 construct: Full length wild-type cereblon CRBN (80.0 nM, 10 μL) was incubated in assay buffer
T2 sequence (Q96SW2 whole entry): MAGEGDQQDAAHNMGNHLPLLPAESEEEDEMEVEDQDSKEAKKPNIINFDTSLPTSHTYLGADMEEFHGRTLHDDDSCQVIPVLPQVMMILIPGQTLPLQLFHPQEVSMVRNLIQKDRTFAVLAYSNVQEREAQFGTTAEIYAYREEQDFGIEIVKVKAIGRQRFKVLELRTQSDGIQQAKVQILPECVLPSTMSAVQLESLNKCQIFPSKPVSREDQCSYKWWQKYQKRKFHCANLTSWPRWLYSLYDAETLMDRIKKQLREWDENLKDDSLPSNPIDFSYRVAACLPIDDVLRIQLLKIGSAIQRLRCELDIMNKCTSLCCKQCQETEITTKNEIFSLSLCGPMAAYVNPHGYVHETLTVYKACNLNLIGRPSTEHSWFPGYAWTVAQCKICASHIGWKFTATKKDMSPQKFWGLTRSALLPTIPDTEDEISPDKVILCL
Description: Compound activity was monitored in a fluorescence polarization (FP) homogeneous assay using 1-[5-({2-[2-(2-{[2-(2,6-dioxopiperidin-3-yl)-1,3-dioxo-2,3-dihydro-1H-isoindol-4-yl]oxy}acetamido)ethoxy]ethyl}carbamoyl)pentyl]-3,3-dimethyl-2-[(1E,3E)-5-[(2E)-1,3,3-trimethyl-5-sulfo-2,3-dihydro-1H-indol-2-ylidene]penta-1,3-dien-1-yl]-3H-indol-1-ium-5-sulfonate as a fluorescent probe. Unless otherwise stated, all reagents were purchased from Sigma Aldrich. Enzymatic reactions were conducted in Perkin-Elmer Black 384 well ProxiPlate Plus (catalogue no. 6008269) in 10 μL total volume. Full length wild-type cereblon CRBN (80.0 nM, 10 μL) was incubated in assay buffer containing 20 mM HEPES (pH 8.0), […], 0.5 mM TCEP and 0.05% Tween 20 in the presence or absence of compound (300 nL). Inhibitors were stored as 10 mM DMSO stocks in an inert environment (low humidity, dark, low oxygen, room temperature) using the Storage Pod System. Compounds and DMSO were dispensed using the Echo E5XX (Labcyte Inc. USA) to give concentrations from 300 to 0.937 or 3000 to 9.3 nM in a 12 data point curve. […] Following incubation at room temperature for 30 min, the assay was initiated by dispensing the probe to a final concentration of 5 nM (2.5 nL of a 20 μM stock) using the Echo E5XX. FP was measured after a period of 12 hours using a Pherastar plate reader (BMG Labtech, Germany) exciting at 590 nm and measuring the amount of parallel and perpendicular light at 675 nm. The FP signal was subsequently normalized to the no-compound control (i.e., DMSO). Analysis and IC50 values were derived using Dotmatics (Dotmatics UK) software.

HBE16 cells = assay: Killing activity (EC10) in HBE16 cells after 72 hr; assay type: cell-based, human
[2] = test system: G542X cystic fibrosis transmembrane conductance regulator (CFTR) nonsense mutation; assay: HaloTag G542X 5×5 NanoLuc reporter assay (CFTR readthrough) in HBE16 cells; assay type: cell-based, human
Description: FIG. 3A, FIG. 3B, and FIG. 3C show the effect of a representative compound of the disclosure on CFTR readthrough: Readthrough of the common G542X cystic fibrosis transmembrane conductance regulator (CFTR) nonsense mutation was carried out in the immortalized human bronchial epithelial cells HBE16. A HaloTag G542X 5×5 NanoLuc reporter assay was established in that cell line containing the CFTR readthrough cassette bearing the G542X codon as well as 5 codons upstream and downstream from the human CFTR sequence. […] The total protein assay (C) indicates no significant decrease of HBE16 cell viability following treated with the representative compound of the disclosure alone or in combination with G418 (y-axis left indicating protein μg/μL, and y-axis right indicating %).
The total protein assay (C) indicates no significant decrease of HBE16 cell viability following treated with the representative compound of the disclosure alone or in combination with ELX-02 (y-axis left indicating protein μg/μL, and y-axis right indicating %).

T1 sequence (P15170 whole entry): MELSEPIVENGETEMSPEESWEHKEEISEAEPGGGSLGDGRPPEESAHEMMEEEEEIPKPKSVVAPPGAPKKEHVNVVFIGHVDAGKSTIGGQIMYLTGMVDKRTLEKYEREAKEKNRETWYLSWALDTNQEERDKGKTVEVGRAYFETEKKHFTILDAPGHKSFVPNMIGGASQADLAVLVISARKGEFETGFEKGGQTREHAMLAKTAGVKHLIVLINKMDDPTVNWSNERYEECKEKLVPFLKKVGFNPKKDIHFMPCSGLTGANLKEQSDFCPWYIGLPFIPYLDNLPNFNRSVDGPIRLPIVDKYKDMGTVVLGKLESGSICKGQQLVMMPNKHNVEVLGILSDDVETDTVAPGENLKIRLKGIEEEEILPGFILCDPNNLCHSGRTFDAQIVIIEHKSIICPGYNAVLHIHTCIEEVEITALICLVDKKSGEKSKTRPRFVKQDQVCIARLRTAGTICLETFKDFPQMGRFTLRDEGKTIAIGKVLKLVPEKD
T1 sequence (Q96SW2 whole entry): as the sequence (Q96SW2 whole entry) above
T1 sequence (Q16531 whole entry partner): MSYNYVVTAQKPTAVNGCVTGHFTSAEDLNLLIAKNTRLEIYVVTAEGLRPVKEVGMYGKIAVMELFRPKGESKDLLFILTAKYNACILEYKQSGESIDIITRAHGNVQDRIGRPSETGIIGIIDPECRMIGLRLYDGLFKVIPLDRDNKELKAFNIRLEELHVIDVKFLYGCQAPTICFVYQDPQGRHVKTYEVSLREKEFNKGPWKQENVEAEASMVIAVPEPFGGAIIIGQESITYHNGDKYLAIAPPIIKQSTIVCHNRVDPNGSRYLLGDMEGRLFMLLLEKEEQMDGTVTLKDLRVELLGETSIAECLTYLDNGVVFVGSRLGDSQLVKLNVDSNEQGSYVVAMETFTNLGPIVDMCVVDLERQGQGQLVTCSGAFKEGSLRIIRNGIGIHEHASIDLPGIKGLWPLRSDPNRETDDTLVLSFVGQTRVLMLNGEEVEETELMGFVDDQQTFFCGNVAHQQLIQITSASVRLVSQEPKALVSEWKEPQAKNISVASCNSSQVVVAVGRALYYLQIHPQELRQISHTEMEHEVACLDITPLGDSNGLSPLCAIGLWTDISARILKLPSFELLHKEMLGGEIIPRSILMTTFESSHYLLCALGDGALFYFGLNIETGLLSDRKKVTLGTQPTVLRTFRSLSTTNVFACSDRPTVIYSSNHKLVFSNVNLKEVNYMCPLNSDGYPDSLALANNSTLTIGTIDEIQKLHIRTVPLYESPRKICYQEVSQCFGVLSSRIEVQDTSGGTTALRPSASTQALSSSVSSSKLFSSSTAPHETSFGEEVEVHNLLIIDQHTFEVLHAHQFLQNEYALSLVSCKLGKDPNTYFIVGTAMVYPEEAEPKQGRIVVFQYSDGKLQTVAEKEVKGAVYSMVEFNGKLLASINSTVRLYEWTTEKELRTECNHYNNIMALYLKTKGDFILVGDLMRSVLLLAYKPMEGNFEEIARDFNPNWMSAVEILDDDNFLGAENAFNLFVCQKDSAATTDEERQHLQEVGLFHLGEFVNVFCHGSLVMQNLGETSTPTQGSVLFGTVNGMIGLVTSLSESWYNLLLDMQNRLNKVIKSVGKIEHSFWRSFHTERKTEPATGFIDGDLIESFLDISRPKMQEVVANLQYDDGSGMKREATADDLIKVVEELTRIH

Structure (SMILES): Cc1cc(NC(=O)OCc2ccc3c(c2)C(=O)N(C2CCC(=O)NC2=O)C3)cnc1-c1ccccc1 (stereo not drawn) [Compound 288]
- DC50 (GSPT1): < 0.03 µM
- IC50 [1]: < 1.1 µM

Structure (SMILES): Cc1ncc(NC(=O)OCc2ccc3c(c2)C(=O)N(C2CCC(=O)NC2=O)C3)cc1OC(F)(F)F (stereo not drawn) [Compound 291]
- DC50 (GSPT1): < 0.03 µM
- IC50 [1]: < 1.1 µM

Structure (SMILES): O=C1CCC(N2Cc3ccc(COC(=O)Nc4ccc5c(c4)OCCC5)cc3C2=O)C(=O)N1 (stereo not drawn) [Compound 292]
- DC50 (GSPT1): < 0.03 µM
- IC50 [1]: < 1.1 µM

Structure (SMILES): C[C@@H](N)[C@H]1O[C@@H](O[C@@H]2[C@@H](O)[C@H](N)C[C@H](N)[C@H]2O[C@H]2O[C@H]([C@@H](C)O)[C@@H](O)[C@H](O)[C@H]2N)[C@H](O)[C@@H]1O [ELX-02]
- EC10 (concentration resulting in 10% killing activity) (HBE16 cells): 85 µM
- EC50 [2]: 250 µM
- EC10 (readthrough activity, NanoLuc) ([2]; concentration used in combination): 85 µM
